# According to patent EP1935986B1, “Luminogenic and fluorogenic compounds and methods to detect molecules or conditions” (priority 2005, dated 2006):
# Key:
# beta-glucuronidase (GUS) = molecular target: T1, beta-glucuronidase (GUS) (Homo sapiens, UniProt P08236); assay: Beta-glucuronidase assay with luciferin 6'-glucuronide (luminescent) or 4-methylumbelliferyl glucuronide (fluorescent); format: biochemical; details: 50 mM MES, pH 6.3, 15 minutes
# T1 construct: purchased Sigma-Aldrich
# T1 sequence (P08236 23-651): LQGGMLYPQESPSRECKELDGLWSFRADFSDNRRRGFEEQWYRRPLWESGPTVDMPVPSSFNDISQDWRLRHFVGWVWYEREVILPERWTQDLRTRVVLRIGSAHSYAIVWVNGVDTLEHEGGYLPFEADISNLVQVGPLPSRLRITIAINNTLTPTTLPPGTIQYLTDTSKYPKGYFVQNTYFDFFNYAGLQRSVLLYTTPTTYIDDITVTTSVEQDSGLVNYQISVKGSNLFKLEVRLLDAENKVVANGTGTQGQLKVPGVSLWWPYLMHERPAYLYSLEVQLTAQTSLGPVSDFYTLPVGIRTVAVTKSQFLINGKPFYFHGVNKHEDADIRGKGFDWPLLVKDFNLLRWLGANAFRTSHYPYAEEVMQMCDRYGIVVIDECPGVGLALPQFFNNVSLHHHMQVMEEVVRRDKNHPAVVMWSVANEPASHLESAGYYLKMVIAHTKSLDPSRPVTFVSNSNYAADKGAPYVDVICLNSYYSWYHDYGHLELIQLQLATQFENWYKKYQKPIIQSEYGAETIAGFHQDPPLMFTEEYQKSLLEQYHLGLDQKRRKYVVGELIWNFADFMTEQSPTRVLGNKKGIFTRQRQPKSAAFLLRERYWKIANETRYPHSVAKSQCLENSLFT
# Method: The source of the human enzyme was Sigma-Aldrich. GUS was incubated with the substrate in 50 mM MES, pH 6.3, for 15 minutes. […]
# luciferase = assay: No-enzyme control: activity of luciferase towards the luciferin derivative (background luminescence); details: no GUS, 50 mM MES, pH 6.3
# Method: The reactions (Table 1) were assembled by first adding the water and 1 M BisTris solutions in individual 0.5 ml microfuge tubes, then adding the other components except for the GST #3 solution. Finally, the GST #3 (Figure 12) solution was added to the reactions, the resulting solution was mixed, and the time of addition noted. […]
# The GST #3 addition was performed last and the solutions were mixed immediately after addition of GST #3. […] After mixing, the light produced by the solution was measured using a Turner TD 20/20 luminometer.
# After assembly, the enzyme stock solutions were diluted 1:10 into 10 mM HEPES, pH 7.5 and the following additions were made to the reactions.
# A 5 µl sample of the luciferol DMF solution was added to each of the reactions above and a timer was started upon the addition of the first luciferol/DMF solution to reaction 1. All reactions were kept at room temperature.
# After incubating 5 minutes at room temperature, the light produced by these samples was measured using a Turner TD 20 luminometer.
# To initiate the conversions, 5 µl of luciferol solution was added to reactions […], 6-9, and 11-15, and 10 µl of luciferol was added to reactions 5 and 10 and the tubes mixed after that addition. Immediately after luciferol addition to reaction 1, a timer was started and the time of luciferol addition to the other tubes noted. After mixing, reaction 11-15 were placed at 37°C.
# After incubating 10 minutes at room temperature, the light produced by these samples was read using a Turner TD 20 luminometer (Table 18).
# To initiate Step 1, 45 µl of enzyme and buffer were added to each well.
# Solution A and Solution B are components of the NADPH Regeneration System (V9510, Promega Corp., Madison WI). […] Solution B contains 40 units/ml glucose-6-phosphate dehydrogenase in 5 mM citrate pH 5.5.
structure (smiles),measurement,setting,value
O=C(O)[C@H]1O[C@@H](Oc2ccc3nc(C4=N[C@@H](C(=O)O)CS4)sc3c2)[C@H](O)[C@@H](O)[C@@H]1O [drawing 190],"luminescence, + GUS",beta-glucuronidase (GUS); [substrate] 3.5 uM,"46,210"
same,"luminescence, + GUS",beta-glucuronidase (GUS); [substrate] 31.5 uM,"232,533"
same,"luminescence, + GUS",beta-glucuronidase (GUS); [substrate] 94.4 uM,"423,619"
same,"luminescence, + GUS",beta-glucuronidase (GUS); [substrate] 283.1 uM,"696,778"
same,"luminescence, + GUS",beta-glucuronidase (GUS); [substrate] 849.3 uM,"994,977"
same,"luminescence, + GUS",beta-glucuronidase (GUS); [substrate] 2548.0 uM,"1,335,243"
same,"luminescence, + GUS",beta-glucuronidase (GUS); [substrate] […],"107,502"
same,"luminescence, no GUS",luciferase; [substrate] 3.5 uM,"1,108"
same,"luminescence, no GUS",luciferase; [substrate] 31.5 uM,"5,068"
same,"luminescence, no GUS",luciferase; [substrate] 94.4 uM,"13,091"
same,"luminescence, no GUS",luciferase; [substrate] 283.1 uM,"34,127"
same,"luminescence, no GUS",luciferase; [substrate] 849.3 uM,"91,975"
same,"luminescence, no GUS",luciferase; [substrate] 2548.0 uM,"209,219"
same,"luminescence, no GUS",luciferase; [substrate] […],"2,190"
